One series is described as follows: in vivo. Particulars: nude (nu/nu), mouse, 180 mg/kg/day. The protocol:
The fluconazole dose approximately corresponded to a human equivalent dose of 100 mg/day for a 70 kg human. […] These doses are within the standard range of human treatment doses for both of these antifungal agents. Animals were sacrificed four hours after the last drug dosing and levels of fenretinide measured in the plasma by a HPLC methodology.

For series [1] the following is noted: nude mice bearing SMS-KCNR xenografts; ketoconazole 50 mg/kg/day, nine doses, starting two days prior to fenretinide 180 mg/kg/day, five doses.
Series [2] in a line: Effect of various dosages of ketoconazole on fenretinide levels in mouse plasma (Example 3, HPLC). It counts as in vivo. Conditions: NOD/SCID mice; ketoconazole 37, 75 or 150 mg/kg/day, nine doses, starting two days prior to fenretinide 180 mg/kg/day, five doses; all dose levels, P<0.05. An excerpt: Animals were sacrificed four hours after the last drug dosing and levels of fenretinide measured in the blood plasma by a HPLC methodology.

Each structure is given as a SMILES string.

In turn, `CC1=C(/C=C/C(C)=C/C=C/C(C)=C/C(=O)Nc2ccc(O)cc2)C(C)(C)CCC1` [fenretinide, N-(4-hydrophenyl) retinamide] yielded a concentration at 4 h in the series “in vivo” of 12.6 µM.
As for `CC(=O)N1CCN(c2ccc(OCC3COC(Cn4ccnc4)(c4ccc(Cl)cc4Cl)O3)cc2)CC1` (stereo not drawn) [ketoconazole], in series [1], the “effect on fenretinide levels in tumor tissue” value is “increased”. The “effect on mean fenretinide level in plasma compared to controls” value in series [2] was “significantly increased”.

The values are drawn from patent publication US20140329832A1, “METABOLIC DEGRADATION INHIBITORS FOR ANTI-HYPERPROLIFERATIVE AGENTS” (CHILDRENS HOSPITAL LOS ANGELES, priority 2007, published 2014).
